The text below walks through data of patent US12509462B2, “3-(phenylsulfonyl)-[1,2,3]triazolo[1,5A]quinazolin-5(4H)-one derivatives” (BIOVERSYS AG, priority 2018, dated 2025).

The subject of one data set is MRSA (USA300 isolate). Put plainly: Hemolysis Assay I (exotoxin-mediated lysis of rabbit red blood cells by culture supernatant). Particulars: 30/10/3.3/1.1/0.37 μM compound, values at OD600 of 0.75. Format: cell-based, Staphylococcus aureus.
Data set [1] concerns Staphylococcus aureus MRSA strain (USA300 isolate). Put plainly: Hemolysis Assay II (exotoxin-mediated lysis of rabbit red blood cells by culture filtrate). Format: cell-based. Particulars: Erythrocyte; for minimal effective concentration / IC95: 18 h; for minimal effective concentration: absorbance <2× the average of the complete inhibition control, read-out: Hemolysis assay II MEC (minimal effective concentration); for IC95: read-out: Hemolysis assay II IC95; for IC50: 18 h culture in CA-MHB, rabbit red blood cells.

The test system of another data set is MRSA. Put plainly: MIC by broth microdilution in CA-MHB (CLSI). The note with it: Staphylococcus aureus, 18 h, read-out: MIC on MRSA.
In another data set the test system is psmα. Type of data set: cell-based, Staphylococcus aureus.
Data set [2] addresses AgrAc (C-terminal domain of AgrA) (Staphylococcus aureus, UniProt P0A0I7). Format: binding. Particulars: 15N-AgrAc 100 μM, 1.6 mM compound. The source says: 2D ^1H,^15N HSQC spectra were acquired at 298 K on a Bruker Avance IIIHD 600 MHz NMR spectrometer, equipped with a cryogenic triple resonance probe (Bruker, Karlsruhe, Germany). The proton chemical shifts were referenced using the methyl signal of sodium 3-trimethylsillyl-[2,2,3,3-d4]-propionate at 0 ppm. Spectra were processed with the Bruker TopSpin software package 3.5 and analyzed with the Sparky software. Assignments of AgrAc were deduced from the Biological Magnetic Resonance Bank (BMRB) entry 18598. Chemical shifts are reported in parts per million (δ) downfield from the internal standard tetramethylsilane (TMS). […]
For each sample tested, 400 μL of 15N-AgrAc @ […] in [50 mM NaPi pH6.3; 100 mM NaCl 3 mM THP; 5% D20; + TMSP] were mixed with 13 μL of the stock solution of the compound (dissolved in DMSO-d6). […] The samples were analysed on the 600 MHz spectrometer with the sample changer. […]
To produce ^15N-labeled C-terminal domain of AgrA (AgrAc), Escherichia coli BL21(DE3) cells were grown in a M9-based semi-rich medium: M9 medium supplemented with [^15N]—NH4Cl (1.5 g/liter), unlabeled D-glucose (4 g/liter), Isogro-^15N Powder-Growth medium (1 g/liter, 10%; Sigma-Aldrich). […] Elution of AgrAc was performed with a sharp gradient of imidazole (0-400 mM) and the fractions were analyzed by SDS-PAGE (4-20%). […] Protein concentration was estimated based on its UV absorbance at 280 nm.

The next data set concerns HepG2. The note with it: human, 48 h.
In a further data set the test system is RNAIII. Format: cell-based, Staphylococcus aureus. The note with it: 10 μM compound, two hours, MRSA (USA300 isolate), normalized to rpoD.
The test system of data set [3] is S. aureus. Particulars: cited from earlier work.
Another data set concerns red blood cell (RBC). Particulars: cited from earlier work.
Data set [4] deals with S. aureus. The note with it: cited from earlier work. The source holds these as a separate data set.
In a further data set the test system is MRSA USA300 type strain. The note with it: mice infected with a MRSA USA300 type strain, applied multiple times; cited from earlier work.
[5] abbreviates: Staphylococcus aureus, Erythrocyte.

In brackets after ≈: the same amount, converted by molar mass. Some results are limits rather than exact numbers.

Sequence of AgrAc (C-terminal domain of AgrA) (P0A0I7 143-238): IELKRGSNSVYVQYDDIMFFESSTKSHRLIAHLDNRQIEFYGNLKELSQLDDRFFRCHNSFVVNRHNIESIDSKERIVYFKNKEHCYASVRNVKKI

As to `Cc1ccc(S(=O)(=O)c2nnn3c2[nH]c(=O)c2ccccc23)c(C)c1` [Compound 34, 3-(2,4-dimethylphenyl)sulfonyl-4H-triazolo[1,5-a]quinazolin-5-one], in the data set on MRSA (USA300 isolate) (setting [5]), inhibition was half-maximal at 5000 nM (IC50). Moreover, in data set [1], the minimal effective concentration amounted to 4 µg/mL, the IC95 is 3.2 µg/mL (≈ 9.03 µM) and the IC50 is 0.9 µg/mL (≈ 2.54 µM). In the data set on MRSA, the MIC is at least 100 µM. In addition, in the data set with psmα, the “Downregulation of psmα expression at 10 μM” value was “++ (++ downregulation>100-fold (2 log10))”. Moreover, the “Chemical shift perturbations upon binding to AgrAc” value in [2] is “clearly show an interaction”. Besides, the “LD50 HepG2” value in the data set on HepG2 is recorded as “>=100 μM”. Moreover, the “Downregulation of RNAIII expression at 10 μM” value with RNAIII is recorded as “++ (++ downregulation>100-fold (2 log10))”.
On to `Cc1ccc(S(=O)(=O)c2nnn3c2[nH]c(=O)c2ccc(Cl)cc23)c(C)c1` [Compound 3, 8-chloro-3-(2,4-dimethylphenyl)sulfonyl-4H-triazolo[1,5-a]quinazolin-5-one], for which, in the data set with MRSA (USA300 isolate) (setting [5]), the IC50 is 5000 nM. In [1], the minimal effective concentration was 4 µg/mL, the IC95 is 3.45 µg/mL (≈ 8.87 µM) and inhibition was half-maximal at 1.65 µg/mL (≈ 4.24 µM) (IC50). Further, the MIC in the data set on MRSA is at least 100 µM. Moreover, in the data set with psmα, the “Downregulation of psmα expression at 10 μM” value is given as “++ (++ downregulation>100-fold (2 log10))”. Further, the “LD50 HepG2” value with HepG2 is “>=100 μM”. For the same molecule, in the data set with RNAIII, the “Downregulation of RNAIII expression at 10 μM” value is on record as “++ (++ downregulation>100-fold (2 log10))”.
As to `COc1ccc2c(=O)[nH]c3c(S(=O)(=O)c4ccc(C)cc4Cl)nnn3c2c1` [Compound 12, 3-(2-chloro-4-methyl-phenyl)sulfonyl-8-methoxy-4H-triazolo[1,5-a]quinazolin-5-one], 1300 nM corresponded to half-maximal inhibition in the data set with MRSA (USA300 isolate) (IC50). The molecule also displayed an IC50 with MRSA (USA300 isolate) (setting [5]) of about 1000 nM. Further, in data set [1], the minimal effective concentration amounted to 3 µg/mL, the IC95 turned out to be 2.75 µg/mL (≈ 6.79 µM) and the IC50 was found to be 0.85 µg/mL (≈ 2.1 µM). For the same molecule, in the data set on MRSA, the MIC is at least 100 µM. The “Downregulation of psmα expression at 10 μM” value in the data set with psmα is “++ (++ downregulation>100-fold (2 log10))”. Further, the “LD50 HepG2” value in the data set on HepG2 is “>=100 μM”. The “Downregulation of RNAIII expression at 10 μM” value in the data set on RNAIII is recorded as “++ (++ downregulation>100-fold (2 log10))”.
In turn, `COc1ccc2c(=O)[nH]c3c(S(=O)(=O)c4ccc(C)cc4Br)nnn3c2c1` [Compound 18, 3-(2-bromo-4-methyl-phenyl)sulfonyl-8-methoxy-4H-triazolo[1,5-a]quinazolin-5-one] displayed a half-maximal inhibitory concentration (IC50) in the data set with MRSA (USA300 isolate) of 800 nM. The molecule further gave an IC50 with MRSA (USA300 isolate) (setting [5]) of about 1000 nM. In data set [1], the minimal effective concentration came out at 3 µg/mL, the concentration for an effect of 95% (IC95) is 2.75 µg/mL (≈ 6.12 µM) and the IC50 came out at 0.95 µg/mL (≈ 2.11 µM). Also, the MIC in the data set with MRSA is at least 100 µM. In addition, in the data set with psmα, the “Downregulation of psmα expression at 10 μM” value is “++ (++ downregulation>100-fold (2 log10))”. In addition, the “LD50 HepG2” value with HepG2 was “>=100 μM”. Also, in the data set on RNAIII, the “Downregulation of RNAIII expression at 10 μM” value is “++ (++ downregulation>100-fold (2 log10))”.
Take `CC(C)c1ccc(S(=O)(=O)c2nnn3c2nc(O)c2ccccc23)cc1` [Savirin, reference compound]: the half-inhibitory concentration (IC50) in the data set with MRSA (USA300 isolate) (setting [5]) amounted to 15000 nM. In data set [1], the minimal effective concentration turned out to be 8 µg/mL, the IC95 came to 7.8 µg/mL (≈ 21.2 µM) and the 50% inhibitory concentration (IC50) came to 2.6 µg/mL (≈ 7.06 µM). The “Viability of S. aureus” value in the data set on S. aureus [3] is recorded as “without affecting viability”. Further, the MIC with MRSA was at least 100 µM. Also, the “Downregulation of psmα expression at 10 μM” value in the data set with psmα is “+ (key: 0=downregulation between 0 and 10-fold; + downregulation>10-fold (1 log10); ++ downregulation>100-fold (2 log10))”. Besides, the “LD50 HepG2” value with HepG2 is “>=100 μM”. Besides, in the data set on red blood cell (RBC), the “Exotoxin-induced red blood cell (RBC) lysis” value was “inhibited”. Moreover, the “Resistance after multiple passages” value with S. aureus [4] is on record as “No resistance was developed”. Moreover, in the data set with RNAIII, the “Downregulation of RNAIII expression at 10 μM” value is 0 (0=downregulation between 0 and 10-fold). The “Abscess size and dermo necrosis” value in the data set with MRSA USA300 type strain is listed as “significant reduction”.

By IC50 is commonly meant the midpoint of a concentration-inhibition curve. Read a high IC50 as lower potency. One may read the IC95 as the concentration at which the effect reaches the 95% level. As a reminder, the MIC is the smallest concentration in the dilution series that meets the test's criterion for growth inhibition.
